These results are taken from patent publication US6569845B1, “Neovascularization inhibitor containing dienogest as the active ingredient” (Mochida Pharmaceutical Co., Ltd., priority 1997, dated 2003).

One assay relates to rabbit cornea. As to conditions: rabbit cornea assay system (Yamamoto); cited from earlier work.
Assay [1] relates to chorioallantoic membrane of chick fertilized egg. The experiment in a line: CAM (chick embryo chorioallantoic membrane) assay, suppressing action of angiogenesis. In kind it is in vivo. The note with it: for Number of choriallantoic membrane with non-vascular region: EV pellet, 2 days at 37° C. As to the method:
Suppressing Action of Angiogenesis According to CAM (Chick Embryo Chorioallantoic Membrane) Assay
According to the method by Hayashi, et al. (Mechanism of Angiogenesis and Diseases, Medical Journal, pp. 255-266, 1996), the suppressing action of angiogenesis was tested by the CAM assay using chorioallantoic membrane of chick fertilized egg. More specifically, a hole was opened through a chick fertilized egg incubated in an incubator at 37° C. for 4 or 5 days, and then, a silicone ring of an outer diameter of 5 mm and an inner diameter of 3 mm was gently placed on the center of the chorioallantoic membrane, followed by placement of an EV (ethylene-vinyl acetate copolymer) pellet containing dienogest or MPA inside the ring. A chorioallantoic membrane on which an EV pellet with no sample was placed was used as a control group. After incubation at 37° C. for 2 days, a fat emulsion preparation was injected into each chorioallantoic membrane, so as to get a clear view of the vascular network on the chorioallantoic membrane, for subsequent observation. Formation of a non-vascular region of a diameter of 3 mm or more on the chorioallantoic membrane was defined as positive suppressing action on angiogenesis.
a: frequency in % of the occurrence of non-vascular region, in parenthesis.
b: Data of suppressing action on angiogenesis is statistically tested by the Fisher's accurate probability test.

Assay [2] concerns angiogenesis induced by the S-180 tumor cells. Briefly: Murine dorsal air sac assay, angiogenesis induced by S-180 tumor cells. The class given is in vivo. As to conditions: mouse. As to the method: Suppressing Action of Angiogenesis by Murine Dorsal Air Sac Assay According to the method by Iwabana et al. (Cancer Invasion & Metastatic Research Manual, Kinpodo, pp. 172-176, 1995), suppressing action of angiogenesis was tested by the murine dorsal skin method. S-180 tumor cell (murine derived sarcoma) suspended in phosphate buffered saline (PBS) was injected into a Millipore chamber, and the injection opening was closed with a nylon stopper. With an injection syringe, air (10 ml) was injected into the dorsal skin of a mouse anesthetized with Nembutal, to prepare an […], into which the Millipore chamber was transplanted. Animals were preliminarily divided into 4 groups; a Millipore chamber injected with PBS instead of S-180 tumor cells was transplanted into animals of a non-treatment control group (group A), which were then orally given 0.5% CMC carboxymethyl cellulose sodium (0.5% CMC, Wako Pure Chemical Industries, Co.) for 5 days. […] After placing a black ring of the same diameter as the diameter of these chambers at the position of the chambers in place, the number of newly formed vessels of a length of 3 mm or more inside the ring was counted under a stereoscopic microscope. […] Comparison between two groups was done and analyzed by the Wilcoxon's rank sum test; while comparison between multiple groups was done and analyzed by the Dunnett's multiple comparison.

As for `CC(=O)[C@H]1CC[C@H]2[C@@H]3CCC4=CC(=O)CC[C@]4(C)[C@H]3CC[C@]12C` [progesterone], the “activity on angiogenic suppression” value with rabbit cornea was “does not have any activity on angiogenic suppression”.
On to `CC(=O)O[C@]1(C(C)=O)CC[C@H]2[C@@H]3C[C@H](C)C4=CC(=O)CC[C@]4(C)[C@H]3CC[C@@]21C` [MPA, medroxyprogesterone acetate], for which the “number of chorioallantoic membranes with non-vascular region compared with the control group” value in assay [1] (100 μg/egg) is on record as “significantly increased”. Also, in assay [1] (dose 100 μg/egg), the “frequency of the occurrence of non-vascular region” value is 50.0% and the “Number of choriallantoic membrane with non-vascular region” value is 4.
As to `C[C@]12CCC3=C4CCC(=O)C=C4CC[C@H]3[C@@H]1CC[C@@]2(O)CC#N` [Dienogest, 17 α-cyanomethyl-17 β-hydroxy-estra-4, 9(10)-dien-3-one], in assay [1] (compared with the control group, dose-dependent), the “dose that significantly increased the number of chorioallantoic membranes with non-vascular region” value is at least 0.01 μg/egg. Further, the “frequency of the occurrence of non-vascular region” value in assay [1] (dose 0.01 μg/egg) is recorded as 13.3%; in assay [1] (dose 0.1 μg/egg), 23.5%; in assay [1] (dose 1 μg/egg), 48.1%; in assay [1] (dose 10 μg/egg) it was 54.2%; in assay [1] (dose 100 μg/egg), 83.3%; in assay [1] (dose 1000 μg/egg), 91.7%. The “Number of choriallantoic membrane with non-vascular region” value in assay [1] (dose 0.01 μg/egg) stood at 2; in assay [1] (dose 0.1 μg/egg), 4; in assay [1] (dose 1 μg/egg), 13; in assay [1] (dose 10 μg/egg) it was 13; in assay [1] (dose 100 μg/egg) it was 20; in assay [1] (dose 1000 μg/egg) it was 22. In addition, the “suppression of angiogenesis induced by the S-180 tumor cells (angiogenesis index)” value in assay [2] (group C, 0.1 mg/kg orally for 5 days) is reported as “weak suppression of angiogenesis”; in assay [2] (group D, 1 mg/kg orally for 5 days, vs solvent control group (p<0.001)), “significantly suppressed angiogenesis”.
